Data published in patent publication US20130123281A1, “Compositions and Methods for Inhibition of TBL-1 Binding to Disease-Associated Molecules” (BETA CAT PHARMACEUTICALS, LLC, priority 2011, published 2013).

Legend:
[1] = target: T1, TBL1:β-catenin complex (Homo sapiens, UniProt O60907); assay: Sandwich ELISA capturing the TBL1:β-catenin complex from treated cell lysates; assay type: cell-based
T1 construct: endogenous in cells; host or cells: HCT15 (A2 also names HCT116)
T1 sequence (O60907 1-577): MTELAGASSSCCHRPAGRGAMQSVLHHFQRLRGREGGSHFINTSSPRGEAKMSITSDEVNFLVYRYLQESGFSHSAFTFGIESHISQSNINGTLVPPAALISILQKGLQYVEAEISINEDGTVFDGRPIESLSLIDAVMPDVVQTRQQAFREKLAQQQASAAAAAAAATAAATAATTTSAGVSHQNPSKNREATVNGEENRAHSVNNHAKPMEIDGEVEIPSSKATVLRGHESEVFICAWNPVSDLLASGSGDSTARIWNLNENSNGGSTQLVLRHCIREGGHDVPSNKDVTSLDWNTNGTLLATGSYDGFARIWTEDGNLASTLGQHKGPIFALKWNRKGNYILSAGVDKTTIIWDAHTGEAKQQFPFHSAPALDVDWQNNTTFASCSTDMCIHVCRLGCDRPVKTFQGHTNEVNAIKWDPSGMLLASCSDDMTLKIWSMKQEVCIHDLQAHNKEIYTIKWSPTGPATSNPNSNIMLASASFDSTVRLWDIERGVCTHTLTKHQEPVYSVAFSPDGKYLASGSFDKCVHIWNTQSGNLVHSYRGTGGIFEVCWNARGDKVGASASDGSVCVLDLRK
Experimental: HCT 15 cells are incubated with 20 mM LiCl to induce the Wnt pathway. After 24 h fresh medium with 20 mM LiCl and test agent is added at concentration in the range of 0.3 nM to 3 μM for 6 hours at 37° C. Protein lysates are prepared from cells lysed in RIPA buffer containing protease inhibitors, High affinity binding Sandwich Elisa assays were prepared in 96 well Maxisorp plates (NUNC) by coating with 100 μl in each well of unlabeled capture TBL1 antibody (Santa Cruz Biotech) diluted to a final concentration of 2 ug/ml in carbonate/bicarbonate coating buffer, and incubated 18 hours at 4° C. […] The sealed plate was incubated for 2 h at RT, washed 3 times with PBS 0.05% Tween-20, and then the complex and the recombinant protein was detected by antibody against β-catenin (Cell Signaling Tech) and secondary antibody HRP-conjugated (Sigma). Signal was detected by addition of ABTS HRP substrate
(SIGMA), and read with a microplate reader set to 405 nm.
To determine the amount of β-catenin captured, a standard curve was created using recombinant β-catenin (100 fg to 100 ng, Abnova) added instead of cell lysates in the above procedure. Intensity of signal was compared to values generated using test article treated lysates and approximate amount of bound beta catenin determined. […]

[2] = target: T2, interaction of β-catenin with TBL1 (Homo sapiens, UniProt O60907); assay: Immunoprecipitation with TBL1 antibody and Western blot for β-catenin; assay type: cell-based; settings: HCT15 cells treated for 6 h, Western blot
T2 construct: endogenous in cells; host or cells: HCT15 (A2 also names HCT116)
T2 sequence (O60907 1-577): T1 sequence (O60907 1-577)
Experimental: FIG. 2 depicts Western blot of an immunoprecipitation using TBL1 antibody. HCT15 cells were incubated with DMSO or indicated concentration of compound for 6 hours. Cell lysates were made and immunoprecipitated with TBL1 antibody. Proteins were separated on an SDS gel, transferred to a membrane and probed with antibodies to β-catenin and to TBL1. Briefly, the HCT15 cell line was seeded at 70% confluence in medium containing 10% FBS and penicillin/streptomycin. After 24 h the cells were treated with Compound 1 for 6 h. Cell lysates were harvested, precleared with protein NG sepharose (Santa Cruz Biotech), and TBL1 was immunoprecipitated using mouse TBL1 antibody (Santa Cruz Biotech) conjugated to protein G sepharose (Santa Cruz Biotech). Immunoprecipitated proteins were resolved on a 10% SDS-PAGE gel followed by transfer of proteins to a nitrocellulose membrane. Western blot analysis was done using antibodies to detect β-catenin protein (BD Transduction Laboratories) and TBL1 protein (Santa Cruz Biotech).

[3] = target: T3, full length recombinant human TBL1 (Homo sapiens, UniProt O60907); assay: Saturation binding assay with biotinylated compound on coated TBL1; settings: biotinylated compound 0.1 nM to 10 μM, 2 h at room temperature; read-out: IC50 of binding to TBL1 at the equilibrium
T3 construct: full length recombinant human TBL1 or full length recombinant human β-catenin; purchased ABNOVA
T3 sequence (O60907 1-577): T1 sequence (O60907 1-577)
Experimental: (§1) Additionally, Compound 1 can be modified to contain a functional group, such as biotin, capable of being attached to a solid support and test agents identified that disrupt the binding of immobilized Compound 1 to TBL1 protein. High affinity binding Elisa 96 well plate (Maxisorp, Nunc) was coated with 100 μl to each well of full length recombinant human TBL1 or full length recombinant human β-catenin (ABNOVA) diluted to a final concentration of 1 μg/ml in carbonate/bicarbonate coating buffer, sealed to prevent evaporation, and incubated O/N at 4° C. […] The sealed plate was incubated for 2 h at room temperature, washed 3 times with PBS 0.05% Tween-20, and then the bounded compound was detected by streptavidin-HRP conjugated antibody (Cell Signaling Tech) diluted in blocking buffer. Elisa was developed by addition of ABTS HRP substrate (SIGMA), and the optical density (OD) for each well was read with a microplate reader set to 405 nm. […]
(§2) To determine whether the ability of BC2059 to interfere with TBL1:β-catenin complex formation is due to direct interaction between TBL1 or β-catenin and the compound, we performed saturation binding assays in a in vitro system. […] The sealed plate was incubated for 2 h at RT, washed 3 times with PBS 0.05% Tween-20, and then the bounded compound was detected by streptavidin-HRP conjugated antibody (Cell Signaling Tech) diluted in blocking buffer. […]

[4] = target: T4, full length recombinant human β-catenin (Homo sapiens, UniProt P35222); assay: Saturation binding assay with biotinylated compound on coated β-catenin; settings: biotinylated compound 0.1 nM to 10 μM, 2 h at room temperature
T4 construct: full length recombinant human β-catenin (ABNOVA); purchased ABNOVA
T4 sequence (P35222 1-781): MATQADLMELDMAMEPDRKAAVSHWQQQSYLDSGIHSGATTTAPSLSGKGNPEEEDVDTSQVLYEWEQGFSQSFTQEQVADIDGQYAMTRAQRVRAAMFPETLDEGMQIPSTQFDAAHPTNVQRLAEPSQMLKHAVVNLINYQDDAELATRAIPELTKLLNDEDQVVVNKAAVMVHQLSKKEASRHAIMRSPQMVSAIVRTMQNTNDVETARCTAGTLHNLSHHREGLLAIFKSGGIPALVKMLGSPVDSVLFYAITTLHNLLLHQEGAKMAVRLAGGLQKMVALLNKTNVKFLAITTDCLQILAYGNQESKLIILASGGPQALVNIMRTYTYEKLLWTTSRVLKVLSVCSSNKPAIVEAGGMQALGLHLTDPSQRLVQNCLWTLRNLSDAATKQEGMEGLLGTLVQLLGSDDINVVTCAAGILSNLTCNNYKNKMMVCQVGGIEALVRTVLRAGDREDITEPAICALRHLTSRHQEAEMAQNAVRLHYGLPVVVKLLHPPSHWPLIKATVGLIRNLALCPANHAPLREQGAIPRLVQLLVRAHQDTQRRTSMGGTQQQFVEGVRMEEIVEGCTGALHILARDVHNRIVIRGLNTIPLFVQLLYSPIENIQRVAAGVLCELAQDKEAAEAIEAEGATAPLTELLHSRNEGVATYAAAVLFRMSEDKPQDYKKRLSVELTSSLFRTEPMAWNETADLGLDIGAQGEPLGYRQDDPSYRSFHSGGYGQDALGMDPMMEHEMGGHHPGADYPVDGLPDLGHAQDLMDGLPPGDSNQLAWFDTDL
Experimental: as §1, §2

[5] = target: T5, TBL1 (Homo sapiens, UniProt O60907); assay: TBL1 inhibition (Table 5); assay type: binding
T5 construct: full length recombinant human TBL1 or full length recombinant human β-catenin; purchased ABNOVA
T5 sequence (O60907 1-577): T1 sequence (O60907 1-577)
Experimental: Briefly, for homologous competitive assay, a single concentration of 50 nM of biotinylated compound was added to the wells containing TBL1 recombinant protein, in the presence of various concentrations of unlinked compound (range of 0.1 nM to 10 μM) diluted in binding buffer. The sealed plate was incubated for 2 h at RT, and then processed as described above. For the heterologous competitive binding assay, 75 nM of β-catenin was used in place of the biotinylated compound, and the bounded protein was detected by anti-β-catenin antibody (Cell Signaling Tech) followed by secondary HRP-conjugated antibody.
To determine whether the ability of BC2059 to interfere with TBL1:β-catenin complex formation is due to direct interaction between TBL1 or β-catenin and the compound, we performed saturation binding assays in a in vitro system. High affinity binding Elisa 96 well plate (Maxisorp, Nunc) was coated with 100 ul to each well of full length recombinant human TBL1 or full length recombinant human β-catenin diluted to a final concentration of 1 ug/ml in carbonate/bicarbonate coating buffer, sealed to prevent evaporation, and incubated O/N at 4° C. After washing the plate 3 times with PBS 0.05% Tween-20, and blocking the plate with 200 μl of PBS 1% BSA each well for 1 h at RT, 100 μl of biotinylated compound was added to each well containing the recombinant proteins, at concentration in the range of 0.1 nM to 10 μM, diluted in binding buffer (50 mM TrisHCl pH 7.4, 10 mM MgCl2). The sealed plate was incubated for 2 h at RT, washed 3 times with PBS 0.05% Tween-20, and then the bounded compound was detected by streptavidin-HRP conjugated antibody (Cell Signaling Tech) diluted in blocking buffer. Elisa was developed by addition of ABTS HRP substrate (SIGMA), and the optical density (OD) for each well was read with a microplate reader set to 405 nm. To validate the saturation binding assay, homologous and heterologous competitive binding experiment were performed in an in vitro system. Briefly, for homologous competitive assay, a single concentration of 50 nM of biotinylated compound was added to the wells containing TBL1 recombinant protein, in the presence of various concentrations of unlinked compound (range of 0.1 nM to 10 uM) diluted in binding buffer. The sealed plate was incubated for 2 h at RT, and then processed as described above. For the heterologous competitive binding assay, 75 nM of β-catenin was used in place of the biotinylated compound, and the bounded protein was detected by anti-β-catenin antibody (Cell Signaling Tech) followed by secondary HRP-conjugated antibody.

[6] = tested on: HCT116 cells; assay: Cell screening in HCT116 cells (Table 5); assay type: cell-based; settings: Homo sapiens, HCT-116

C[C@@H]1C[C@H](C)CN(S(=O)(=O)c2ccc3c(c2)C(=NO)c2cc(S(=O)(=O)N4C[C@H](C)C[C@H](C)C4)ccc2C3=NO)C1 [Compound 1]
IC50 ([1]; HCT 15 cells, 20 mM LiCl, test agent 6 hours, read-out: IC50, interference with TBL1 and β-catenin interaction): 10 to 20 nM
disruption of the interaction of β-catenin with TBL1 [2]: able to disrupt the interaction of β-catenin with TBL1
IC50 [3]: 20 nM
binding to β-catenin [4]: not β-catenin

CN(Cc1ccncc1)Cc1ccc(-c2nc(-c3cccnc3)cc(=O)[nH]2)cc1 [Compound 10, 2-(4-((methyl(pyridin-4-ylmethyl)amino)methyl)phenyl)-6-(pyridin-3-yl)pyrimidin-4(3H)-one]
EC50 [5]: 0.28 µM

Cc1ccc(CN(C)Cc2ccc(-c3nc(-c4cccnc4)cc(=O)[nH]3)cc2)o1 [Compound 11]
EC50 [5]: 0.29 µM

CC(C)N(C)Cc1ccc(-c2nc(-c3cccnc3)cc(=O)[nH]2)cc1 [Compound 12, 2-(4-((isopropyl(methyl)amino)methyl)phenyl)-6-(pyridin-3-yl)pyrimidin-4(3H)-one]
EC50 [5]: 102 µM

CC(Nc1ncnc2[nH]cnc12)c1cnn(-c2ccccc2F)c1 (stereo not shown) [Compound 15, N-(1-(1-(2-fluorophenyl)-1H-pyrazol-4-yl)ethyl)-9H-purin-6-amine]
EC50 ([1]; compound 0.3 nM to 3 μM for 6 h, cell lysates, read-out: EC50 μM TBL1: β-Catenine): 0.41 µM
EC50 [5]: 0.054 µM
EC50 [6]: 0.127 µM
